In this assay the test system is human neutrophils. Description: PMN transmigration assay (Salmonella typhimurium-infected T84 monolayer, HXA3/MRP2-driven neutrophil migration, MPO readout). To be noted: dose of 100 nM, result in words. It counts as cell-based. The procedure:
PMN transmigration assay. T84 colorectal cancer cells were grown to confluence on the bottom side of 12 well polycarbonate membrane inserts of a 24 well Transwell® plate. The confluent growth of these epithelial cells results in physiologically-relevant apical (luminal) and basolateral surfaces in the transwells. […] The monolayer was then infected on the apical surface with Salmonella typhimurium for 2 hours to induce hepoxilin A3 (HXA3) efflux through the MRP2 membrane protein and into the apical chamber. […] Freshly isolated and prepared human neutrophils were then added to the basolateral side and allowed to transmigrate through the monolayer for 2 hours. The number of neutrophils migrated to the apical chamber (due to the HXA3 gradient) was then assayed by determination of myeloperoxidase activity (a neutrophil biomarker). Inhibition of transmigration is indicated by lower MPO activity in the apical chamber.

The structures appear in SMILES notation.

On to `CC[C@@H]1NC(=O)[C@H]([C@H](O)[C@H](C)CCCCCCC(=O)O)N(C)C(=O)[C@H](C(C)C)N(C)C(=O)[C@H](CC(C)C)N(C)C(=O)[C@H](CC(C)C)N(C)C(=O)[C@@H](C)NC(=O)[C@H](C)NC(=O)[C@H](CC(C)C)N(C)C(=O)[C@H](C(C)C)NC(=O)[C@H](CC(C)C)N(C)C(=O)CN(C)C1=O` [BT125], for which the “inhibition of neutrophil migration” value is “exhibit inhibition”.
As for `CC[C@@H]1NC(=O)[C@H]([C@H](O)[C@H](C)CCCCC(=O)O)N(C)C(=O)[C@H](C(C)C)N(C)C(=O)[C@H](CC(C)C)N(C)C(=O)[C@H](CC(C)C)N(C)C(=O)[C@@H](C)NC(=O)[C@H](C)NC(=O)[C@H](CC(C)C)N(C)C(=O)[C@H](C(C)C)NC(=O)[C@H](CC(C)C)N(C)C(=O)CN(C)C1=O` [BT122], the entry is “exhibit inhibition”.

Source of the values: patent US20240277798A1, “CYCLOSPORINE COMPOSITIONS AND METHODS OF USE” (Bacainn Biotherapeutics, Ltd., priority 2021, published 2024).
